Results reported in patent US6462055B2, “Alpha-methylbenzyl-containing thiourea inhibitors of herpes viruses containing a phenylenediamine group” (Wyeth, priority 1998, dated 2002).
Values after ≈ are worked out from the molar mass of the structure shown.

Assays:
HSV-1 = test: HSV Antiviral (ELISA) Assay in Vero cells; type: cell-based, herpes simplex virus type 1; details: HSV-1, Vero cells; for IC50: Human alphaherpesvirus 1, read-out: IC50 (ug/ml) HSV
Procedure, shortened: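 Viral replication was quantified by cell-fixed ELISA for HSV glycoprotein D, using a β-galactosidase reporter and fluorogenic umbelliferyl substrate, about 24 h after HSV-1 infection (MOI 0.006) of Vero cells. Compounds, at several concentrations, were added 30 min pre-infection. IC50 was derived from fluorescence relative to the compound-free signal.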

[1] = test system: HCMV recombinant mutant virus (RV145); test: microbe, parasite or virus in culture; type: cell-based, human cytomegalovirus; details: for IC50: Human betaherpesvirus 5, read-out: IC50 ug/ml HCMV, HCMV
Procedure, shortened: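 Read-out is beta-glucuronidase activity in cell lysates 96 h after infection, measured colorimetrically or fluorometrically. Reporter virus RV145 expresses the enzyme under a viral promoter in human foreskin fibroblasts treated with inhibitor.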

VZV strain Ellen = test: VZV Antiviral (ELISA) Assay in human foreskin fibroblast cells; type: cell-based, varicella-zoster virus; details: for IC50 / inhibition at 10 µg/mL: Human alphaherpesvirus 3, Fibroblast; for IC50: read-out: IC50 (ug/ml) VZV; for inhibition at 10 µg/mL: read-out: % inhibition 10 ug/ml VZV, 10 ug/ml
Procedure, shortened: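 Low-MOI (<0.1) Ellen infection of HFF overnight; cell mix plated 3.5×10^4/well with compound, DMEM + 2% FBS, 3 d, 37° C, 5% CO2. Fix, anti-gpII mAb ELISA, MUG substrate, fluorescence. IC50 vs compound-free signal.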

| Compound | IC50 (ug/ml) HSV (HSV-1) | IC50 ug/ml HCMV [1] | IC50 (ug/ml) VZV (VZV strain Ellen) | % inhibition 10 ug/ml VZV (VZV strain Ellen) | IC50 (HSV-1) | IC50 [1] | IC50 (VZV strain Ellen) | inhibition at 10 µg/mL (VZV strain Ellen) |
| --- | --- | --- | --- | --- | --- | --- | --- | --- |
| COc1cc(OC)c(NC(=S)Nc2ccc(NC(=O)c3cccc4ccccc34)cc2)cc1Cl [Example 157] | 0.9 µg/mL (≈ 1.83 µM) | 8 µg/mL (≈ 16.3 µM) | >10 µg/mL | 32% |  |  |  |  |
| O=C(Nc1ccc(NC(=S)Nc2ccc3[nH]nnc3c2)cc1)c1c(F)cccc1F [Example 527] | >10 µg/mL | >10 µg/mL | >10 µg/mL | 20% |  |  |  |  |
| CS(=O)(=O)Nc1ccc(NC(=S)Nc2ccc(NC(=O)c3ccccc3F)cc2)cc1Cl [Example 370] | >10 µg/mL | >10 µg/mL | >10 µg/mL | 16% |  |  |  |  |
| Cc1ccc(NC(=S)Nc2ccc(NC(=O)c3ccccc3F)cc2)cc1C(F)(F)F [Example 1003, 2-Fluoro-N-{4-[3-(4-methyl-3-trifluoromethyl-phenyl)-thioureido]-phenyl}-benzamide] |  |  |  |  | > 10 µg/mL | > 10 µg/mL | > 10 µg/mL |  |
| O=C(Nc1ccc(NC(=S)NCc2cc(C(F)(F)F)cc(C(F)(F)F)c2)cc1)c1ccccc1F [Example 543] | >10 µg/mL | 0.3 µg/mL (≈ 0.582 µM) | >10 µg/mL |  |  |  |  |  |
| N-{4-[3-(3-Chloro-4-methoxy-phenyl)-thioureido]-phenyl}-4-methoxy-benzamide [Example 821] | 0.15 µg/mL | 1 µg/mL | >10 µg/mL | 55% |  |  |  |  |
| COc1cc(OC)c(NC(=S)Nc2ccc(NC(=O)c3ccccc3F)c(C(=O)c3ccccc3)c2)cc1Cl [Example 293] | >50 µg/mL | >10 µg/mL | >10 µg/mL | 2% |  |  |  |  |
| O=C(Nc1ccc(NC(=S)NCCc2ccc(F)cc2)cc1)c1ccccc1F [Example 552] | >10 µg/mL | >0.5 µg/mL | >10 µg/mL |  |  |  |  |  |
| COc1cc(OC)c(NC(=S)Nc2ccc(NC(=O)c3c(F)cccc3F)cc2)cc1Cl [Example 140] | 0.15 µg/mL (≈ 0.314 µM) | 4 µg/mL (≈ 8.37 µM) | 10 µg/mL (≈ 20.9 µM) | 65% |  |  |  |  |
| O=C(Nc1ccc(NC(=S)Nc2cc(C(F)(F)F)cc(C(F)(F)F)c2)cc1)c1ccccc1F [Example 517] | >10 µg/mL | 1.1 µg/mL (≈ 2.19 µM) | >10 µg/mL | 5% |  |  |  |  |
| CC(NC(=S)Nc1ccc(NC(=O)c2ccccc2F)cc1)c1ccccc1Br (stereo not drawn) [Example 783] | >10 µg/mL | 1.1 µg/mL (≈ 2.33 µM) | 0.3 µg/mL (≈ 0.635 µM) |  |  |  |  |  |
| Cc1ccccc1C(=O)Nc1ccc(NC(=S)Nc2ccc(N(C)C3CCN(C)CC3)c(Cl)c2)cc1 [Example 375] | 5 µg/mL (≈ 9.58 µM) | 1.5 µg/mL (≈ 2.87 µM) | 7 µg/mL (≈ 13.4 µM) | 95% |  |  |  |  |
| COc1cc(C)c(Cl)cc1NC(=S)Nc1ccc(NC(=O)c2ccccc2F)cc1Cl [Example 458] | 0.06 µg/mL (≈ 0.125 µM) | >10 µg/mL | >10 µg/mL | 25% |  |  |  |  |
| CN(C)CC(=O)Nc1ccc(NC(=S)Nc2ccc(NC(=O)c3ccccc3F)cc2)cc1Cl [Example 362] | >10 µg/mL | >10 µg/mL | >10 µg/mL | 8% |  |  |  |  |
| CCSc1ccc(NC(=S)Nc2ccc(NC(=O)c3ccccc3F)cc2)cc1Cl [Example 386] | >10 µg/mL | 2 µg/mL (≈ 4.35 µM) | >10 µg/mL | 29% |  |  |  |  |
| COc1ccccc1C(=O)Nc1ccc(NC(=S)NC(C)c2cc3ccccc3o2)cc1 (stereo not drawn) [Example 1018, N-{4-[3-(1-Benzofuran-2-yl-ethyl)-thioureido]-phenyl}-2-methoxy-benzamide] |  |  |  |  | > 10 µg/mL | > 10 µg/mL | 0.09 µg/mL (≈ 0.202 µM) |  |

| Compound | IC50 (ug/ml) HSV (HSV-1) | IC50 ug/ml HCMV [1] | IC50 (ug/ml) VZV (VZV strain Ellen) | % inhibition 10 ug/ml VZV (VZV strain Ellen) | IC50 (HSV-1) | IC50 [1] | IC50 (VZV strain Ellen) | inhibition at 10 µg/mL (VZV strain Ellen) |
| --- | --- | --- | --- | --- | --- | --- | --- | --- |
| COc1cc(OC)c(NC(=S)Nc2ccc(NC(=O)c3ccc(F)c(F)c3F)cc2)cc1Cl [Example 192] | 0.5 µg/mL (≈ 1.01 µM) | >10 µg/mL | >10 µg/mL | 14% |  |  |  |  |
| CN1CCC(N(C)c2ccc(NC(=S)Nc3ccc(NC(=O)c4c(F)cccc4F)cc3)cc2Cl)CC1 [Example 340] | 3 µg/mL (≈ 5.51 µM) | 0.25 µg/mL (≈ 0.459 µM) | 4 µg/mL (≈ 7.35 µM) | 99% |  |  |  |  |
| Nc1ccc(Cl)cc1NC(=S)Nc1ccc(NC(=O)c2ccccc2F)cc1 [Example 437] | 0.05 µg/mL (≈ 0.121 µM) | >10 µg/mL | 8 µg/mL (≈ 19.3 µM) | 0% |  |  |  |  |
| CC(NC(=S)Nc1ccc(NC(=O)c2cc3ccccc3cn2)cc1)c1cc2ccccc2o1 (stereo not drawn) [Example 985, Isoquinoline-3-carboxylic acid {4-[3-(1-benzofuran-2-yl-ethyl)-thioureido]-phenyl}-amide] |  |  |  |  | > 10 µg/mL | > 10 µg/mL | 0.035 µg/mL (≈ 0.075 µM) |  |
| COc1cc(OC)c(NC(=S)Nc2ccc(NC(=O)c3cccc(F)c3)cc2)cc1Cl [Example 117] | 0.3 µg/mL (≈ 0.652 µM) | 3 µg/mL (≈ 6.52 µM) | >10 µg/mL | 15% |  |  |  |  |
| O=C(Nc1ccc(NC(=S)Nc2cc(Cl)cc(Cl)c2)cc1)c1ccccc1F [Example 934, N-{4-[3-(3,5-Dichloro-phenyl)-thioureido]-phenyl}-2-fluoro-benzamide] |  |  |  |  | > 10 µg/mL | > 10 µg/mL | > 10 µg/mL | 18% |
| COc1cc(C)c(Cl)cc1NC(=S)Nc1ccc(NC(=O)c2c(F)cccc2F)cc1 [Example 333] | 0.04 µg/mL (≈ 0.0866 µM) | 2.5 µg/mL (≈ 5.41 µM) | 4.5 µg/mL (≈ 9.74 µM) | 92% |  |  |  |  |
| CC(NC(=S)Nc1ccc(NC(=O)c2ccccc2F)cc1)c1ccccc1 (stereo not drawn) [Example 589] | >10 µg/mL | 7 µg/mL (≈ 17.8 µM) | 0.36 µg/mL (≈ 0.915 µM) |  |  |  |  |  |
| CC(NC(=S)Nc1ccc(NC(=O)c2ccccc2F)cc1)c1ccccc1C(F)(F)F (stereo not drawn) [Example 785] |  |  |  |  | > 10 µg/mL | > 2.2 µg/mL | > 7.5 µg/mL |  |
| COc1cc(OC)c(NC(=S)Nc2ccc(NC(=O)c3cccc(F)c3F)cc2)cc1Cl [Example 186] | 0.2 µg/mL (≈ 0.418 µM) | >10 µg/mL | >10 µg/mL | 52% |  |  |  |  |
| O=C(CN1CCSCC1)Nc1ccc(NC(=S)Nc2ccc(NC(=O)c3ccccc3F)cc2)cc1Cl [Example 407] | 4 µg/mL (≈ 7.17 µM) | >10 µg/mL | 0.7 µg/mL (≈ 1.25 µM) | 87% |  |  |  |  |
| COc1cccc(C(C)NC(=S)Nc2ccc(NC(=O)c3ccccc3F)cc2)c1 (stereo not drawn) [Example 789] | >10 µg/mL | >2.2 µg/mL | 1.5 µg/mL (≈ 3.54 µM) |  |  |  |  |  |
| O=C(Nc1ccc(NC(=S)Nc2ccccc2)cc1)c1ccccc1F [Example 859, 2-Fluoro-N-[4-(3-phenyl-thioureido)-phenyl]-benzamide] |  |  |  |  | > 10 µg/mL | > 10 µg/mL | > 10 µg/mL | 20% |
| CSc1ccc(NC(=S)Nc2ccc(NC(=O)c3ccccc3C)cc2)cc1Cl [Example 342] | 0.2 µg/mL (≈ 0.452 µM) | 1.4 µg/mL (≈ 3.17 µM) | >10 µg/mL | 62% |  |  |  |  |
| CC(C)Oc1ccc(NC(=S)Nc2ccc(NC(=O)c3ccccc3F)cc2)cc1Cl [Example 808] | >10 µg/mL | >10 µg/mL | >7.5 µg/mL |  |  |  |  |  |
